The values that follow come from patent publication US12065430B2, “Indazole compound or salt thereof” (TAIHO PHARMACEUTICAL CO., LTD., priority 2018, dated 2024).

In one assay the target is G12C K-Ras4B (1-169) (Homo sapiens (Human), UniProt P01116, G12C). Description: Test of compounds on whether to bind to KRASG12C (LC-MS compound binding rate). The conditions noted are these: final compound concentration of 2 μM, 1 μM protein, 25° C. for 2 hours. Put shortly: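 K-Ras4B (1-169) WT and G12C (1 μM each, mixed) in 1×TBS, 0.1 mM TCEP incubated with compound (final 2 μM) 2 h at 25° C; quenched with 0.2% formic acid. Intact-protein LC-MS (ESI+, deconvoluted); binding rate = adduct signal/(adduct + unbound signal), giving selectivity over WT.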

Another assay concerns NCI-H358 cells. In words: Growth inhibition activity on KRAS-G12C mutant cell line (NCI-H358) (in vitro, CellTiter-Glo2.0). The format is cell-based. The conditions noted are these: Homo sapiens, NCI-H358, 72 h, 3-day culture in the presence of the compound. On the procedure:
NCI-H358 cells (ATCC, Cat #: CRL-5807), which are a KRAS-G12C mutant human lung cancer cell line, were suspended in a 10% fetal bovine serum-containing RPMI1640 medium (manufactured by Fujifilm Wako Pure Chemical Corporation.). The cell suspension was seeded into each well of a 384-well flat-bottom microplate and cultured in an incubator containing 5% CO2 gas at 37° C. for 1 day. The test compound was dissolved in DMSO, and diluted with DMSO to give a concentration 500 times the final concentration. The solution of the test compound in DMSO was diluted with the medium used for suspending cells and added to each well of the cell-culture plate to give a DMSO final concentration of 0.2%, followed by culture in an incubator containing 5% CO2 gas at 37° C. for another 3 days. The cell count after 3-day culture in the presence of the compound was measured using CellTiter-Glo2.0 (manufactured by Promega Corporation) in accordance with the protocol recommended by Promega Corporation. The growth inhibition rate was calculated from the following equation, and the concentration of the test compound at which 50% inhibition was achieved (IC50 (nM)) was determined. […] Growth Inhibition Rate (%)=(C−T)/(C)×100 • T: the emission intensity in a well into which a test compound was added. • C: the emission intensity in a well into which a test compound was not added.
Background: ATP-based viability assays read luminescence as a measure of living cells.

Chain of G12C K-Ras4B (1-169) (P01116 other isoform, or with tags, fused parts or gaps G12C): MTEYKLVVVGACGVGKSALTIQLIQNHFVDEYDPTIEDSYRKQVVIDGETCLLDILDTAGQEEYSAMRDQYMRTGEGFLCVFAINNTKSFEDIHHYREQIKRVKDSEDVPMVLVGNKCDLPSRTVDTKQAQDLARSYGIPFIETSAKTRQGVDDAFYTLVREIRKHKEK

One may read the IC50 as the concentration needed to halve the response being measured. `C=CC(=O)N1CC(NC(=O)c2c(C)nc(CNc3n[nH]c4cc(Cl)c(C(C)(C)C)cc34)n2C(C)C)C1` [Example 13, N-(1-acryloylazetidin-3-yl)-2-(((5-(tert-butyl)-6-chloro-1H-indazol-3-yl)amino)methyl)-1-isopropyl-4-methyl-1H-imidazole-5-carboxamide]: on G12C K-Ras4B (1-169), the “binding rate for G12C K-Ras4B (1-169)” value is reported as “A (a binding rate of 80% or more is rated “A,”)”. In the assay on NCI-H358 cells, the IC50 was determined as 135 nM.

With `C=CC(=O)N1CC(NC(=O)c2c(Cl)nc(CNc3n[nH]c4cc(Cl)c(C(C)(C)C)cc34)n2C2CCOCC2)C1` [Example 101, N-(1-acryloylazetidin-3-yl)-2-(((5-(tert-butyl)-6-chloro-1H-indazol-3-yl)amino)methyl)-4-chloro-1-(tetrahydro-2H-pyran-4-yl)-1H-imidazole-5-carboxamide], the “binding rate for G12C K-Ras4B (1-169)” value on G12C K-Ras4B (1-169) was “A (a binding rate of 80% or more is rated “A,”)”. The 50% inhibitory concentration (IC50) in the assay on NCI-H358 cells stood at 54 nM.

As for `C=CC(=O)N1C[C@H](NC(=O)c2c(Cl)nc(CNc3n[nH]c4cc(Cl)c(C(C)(C)C)cc34)n2C)[C@@H](F)C1` [Example 76, N-((3S,4S)-1-acryloyl-4-fluoropyrrolidin-3-yl)-2-(((5-(tert-butyl)-6-chloro-1H-indazol-3-yl)amino)methyl)-4-chloro-1-methyl-1H-imidazole-5-carboxamide], the “binding rate for G12C K-Ras4B (1-169)” value at G12C K-Ras4B (1-169) is on record as “A (a binding rate of 80% or more is rated “A,”)”. The 50% inhibitory concentration (IC50) in the assay on NCI-H358 cells is 232 nM.

`C=CC(=O)N1CC(NC(=O)c2c(Cl)nc(CNc3n[nH]c4cc(Cl)c(C(C)(C)C)cc34)n2[C@@H]2CCOC2)C1` [Example 102, (R)—N-(1-acryloylazetidin-3-yl)-2-(((5-(tert-butyl)-6-chloro-1H-indazol-3-yl)amino)methyl)-4-chloro-1-(tetrahydrofuran-3-yl)-1H-imidazole-5-carboxamide]: the “binding rate for G12C K-Ras4B (1-169)” value at G12C K-Ras4B (1-169) was “A (a binding rate of 80% or more is rated “A,”)”. Besides, the 50% inhibitory concentration (IC50) with NCI-H358 cells was 69 nM.

`C=CC(=O)N1CC(NC(=O)c2c(Cl)nc(CNc3n[nH]c4cc(Cl)c(C(C)(C)C)cc34)n2[C@@H]2C[C@@H](C)N(CC(F)F)C2)C1` [Example 126, N-(1-acryloylazetidin-3-yl)-2-(((5-(tert-butyl)-6-chloro-1H-indazol-3-yl)amino)methyl)-4-chloro-1-((3R,5R)-1-(2,2-difluoroethyl)-5-methylpyrrolidin-3-yl)-1H-imidazole-5-carboxamide]: at G12C K-Ras4B (1-169), the “binding rate for G12C K-Ras4B (1-169)” value is given as “A (a binding rate of 80% or more is rated “A,”)”. Moreover, the half-maximal inhibitory concentration (IC50) in the assay with NCI-H358 cells was found to be 35 nM.

In the case of `C=CC(=O)N1CC(NC(=O)c2c(C(F)F)nc(CNc3n[nH]c4cc(Cl)c(C(C)(C)C)cc34)n2C(C)C)C1` [Example 33, N-(1-acryloylazetidin-3-yl)-2-(((5-(tert-butyl)-6-chloro-1H-indazol-3-yl)amino)methyl)-4-(difluoromethyl)-1-isopropyl-1H-imidazole-5-carboxamide], the “binding rate for G12C K-Ras4B (1-169)” value on G12C K-Ras4B (1-169) is reported as “A (a binding rate of 80% or more is rated “A,”)”. In the assay with NCI-H358 cells, the IC50 was determined as 153 nM.

For the compound `C=CC(=O)N1CC(NC(=O)c2c(Cl)nc(CNc3n[nH]c4cc(Cl)c(C(C)(C)C)cc34)n2C2CN(C(C)C)C2)C1` [Example 107, N-(1-acryloylazetidin-3-yl)-2-(((5-(tert-butyl)-6-chloro-1H-indazol-3-yl)amino)methyl)-4-chloro-1-(1-isopropylazetidin-3-yl)-1H-imidazole-5-carboxamide], at G12C K-Ras4B (1-169), the “binding rate for G12C K-Ras4B (1-169)” value was “A (a binding rate of 80% or more is rated “A,”)”. Further, the IC50 in the assay on NCI-H358 cells came to 78 nM.

On to `C=CC(=O)N1CC(NC(=O)c2c(Cl)nc(CNc3n[nH]c4cc(Cl)c(C(C)(C)C)cc34)n2C(C)C)C1` [Example 35, N-(1-acryloylazetidin-3-yl)-2-(((5-(tert-butyl)-6-chloro-1H-indazol-3-yl)amino)methyl)-4-chloro-1-isopropyl-1H-imidazole-5-carboxamide], for which the “binding rate for G12C K-Ras4B (1-169)” value on G12C K-Ras4B (1-169) was “B (a binding rate of 60% or more and less than 80% is rated “B,”)”. Also, the 50% inhibitory concentration (IC50) in the assay on NCI-H358 cells stood at 67 nM.

With `C=CCN1CC[C@@H](n2c(CNc3n[nH]c4cc(Cl)c(C(C)(C)C)cc34)nc(Cl)c2C(=O)NC2CN(C(=O)C=C)C2)C1` [Example 123, (R)—N-(1-acryloylazetidin-3-yl)-1-(1-allylpyrrolidin-3-yl)-2-(((5-(tert-butyl)-6-chloro-1H-indazol-3-yl)amino)methyl)-4-chloro-1H-imidazole-5-carboxamide], the “binding rate for G12C K-Ras4B (1-169)” value on G12C K-Ras4B (1-169) was “A (a binding rate of 80% or more is rated “A,”)”. Besides, the concentration for half-maximal inhibition (IC50) in the assay on NCI-H358 cells is 21 nM.

`C=CC(=O)N1CC(NC(=O)c2c(Cl)nc(CNc3n[nH]c4cc(Cl)c(C(C)(C)C)cc34)n2C2CCN(C)CC2)C1` [Example 103, N-(1-acryloylazetidin-3-yl)-2-(((5-(tert-butyl)-6-chloro-1H-indazol-3-yl)amino)methyl)-4-chloro-1-(1-methylpiperidin-4-yl)-1H-imidazole-5-carboxamide]: the “binding rate for G12C K-Ras4B (1-169)” value on G12C K-Ras4B (1-169) was “A (a binding rate of 80% or more is rated “A,”)”. The 50% inhibitory concentration (IC50) in the assay with NCI-H358 cells was 29 nM.

For the compound `C=CC(=O)N1C[C@H](NC(=O)c2c(F)nc(CNc3n[nH]c4cc(Cl)c(C(C)(C)C)cc34)n2C)[C@@H](F)C1` [Example 75, N-((3S,4S)-1-acryloyl-4-fluoropyrrolidin-3-yl)-2-(((5-(tert-butyl)-6-chloro-1H-indazol-3-yl)amino)methyl)-4-fluoro-1-methyl-1H-imidazole-5-carboxamide], the “binding rate for G12C K-Ras4B (1-169)” value on G12C K-Ras4B (1-169) is on record as “A (a binding rate of 80% or more is rated “A,”)”. In the assay on NCI-H358 cells, the IC50 stood at 142 nM.

With `C=CC(=O)N1CC(NC(=O)c2c(Cl)nc(CNc3n[nH]c4cc(Cl)c(C(C)(C)C)cc34)n2C)C1` [Example 29, N-(1-acryloylazetidin-3-yl)-2-(((5-(tert-butyl)-6-chloro-1H-indazol-3-yl)amino)methyl)-4-chloro-1-methyl-1H-imidazole-5-carboxamide], the “binding rate for G12C K-Ras4B (1-169)” value at G12C K-Ras4B (1-169) is “B (a binding rate of 60% or more and less than 80% is rated “B,”)”. For the same compound, in the assay with NCI-H358 cells, the IC50 is 34 nM.

Turning to `C=CC(=O)N1CC(NC(=O)c2c(Cl)nc(CNc3n[nH]c4cc(Cl)c(C(C)(C)C)cc34)n2C2CCCOC2)C1` (stereo not shown) [Example 104, N-(1-acryloylazetidin-3-yl)-2-(((5-(tert-butyl)-6-chloro-1H-indazol-3-yl)amino)methyl)-4-chloro-1-(tetrahydro-2H-pyran-3-yl)-1H-imidazole-5-carboxamide], at G12C K-Ras4B (1-169), the “binding rate for G12C K-Ras4B (1-169)” value is on record as “A (a binding rate of 80% or more is rated “A,”)”. Also, the half-maximal inhibitory concentration (IC50) in the assay with NCI-H358 cells worked out at 91 nM.

For `C=CC(=O)N1CC(NC(=O)c2cnc(CNc3n[nH]c4cc(Cl)c(C)cc34)n2C)C1` [Example 37, N-(1-acryloylazetidin-3-yl)-2-(((6-chloro-5-methyl-1H-indazol-3-yl)amino)methyl)-1-methyl-1H-imidazole-5-carboxamide], the “binding rate for G12C K-Ras4B (1-169)” value on G12C K-Ras4B (1-169) was “C (a binding rate of 40% or more and less than 60% is rated “C,”)”.

Consider `C=CC(=O)N1CC(NC(=O)c2c(C#N)nc(CNc3n[nH]c4cc(Cl)c(C(C)(C)C)cc34)n2C)C1` [Example 28, N-(1-acryloylazetidin-3-yl)-2-(((5-(tert-butyl)-6-chloro-1H-indazol-3-yl)amino)methyl)-4-cyano-1-methyl-1H-imidazole-5-carboxamide], for which, on G12C K-Ras4B (1-169), the “binding rate for G12C K-Ras4B (1-169)” value is “B (a binding rate of 60% or more and less than 80% is rated “B,”)”.

As to `C=CC(=O)N1CC(NC(=O)c2c(Cl)nc(CNc3n[nH]c4cc(Cl)c(C(C)(C)C)cc34)n2CC(C)C)C1` [Example 89, N-(1-acryloylazetidin-3-yl)-2-(((5-(tert-butyl)-6-chloro-1H-indazol-3-yl)amino)methyl)-4-chloro-1-isobutyl-1H-imidazole-5-carboxamide], at G12C K-Ras4B (1-169), the “binding rate for G12C K-Ras4B (1-169)” value is “A (a binding rate of 80% or more is rated “A,”)”.

As to `C=CC(=O)N1CC(NC(=O)c2cnc(C(C)Nc3n[nH]c4cc(Cl)c(C(C)(C)C)cc34)n2C)C1` (stereo not shown) [Example 4, N-(1-acryloylazetidin-3-yl)-2-(1-((5-(tert-butyl)-6-chloro-1H-indazol-3-yl)amino)ethyl)-1-methyl-1H-imidazole-5-carboxamide], on G12C K-Ras4B (1-169), the “binding rate for G12C K-Ras4B (1-169)” value is “C (a binding rate of 40% or more and less than 60% is rated “C,”)”.

Regarding `C=CC(=O)N1CC(NC(=O)c2c(C)nc(CNc3n[nH]c4cc(Cl)c(C(C)(C)C)cc34)n2C(C)(C)C)C1` [Example 24, N-(1-acryloylazetidin-3-yl)-1-(tert-butyl)-2-(((5-(tert-butyl)-6-chloro-1H-indazol-3-yl)amino)methyl)-4-methyl-1H-imidazole-5-carboxamide], at G12C K-Ras4B (1-169), the “binding rate for G12C K-Ras4B (1-169)” value was “C (a binding rate of 40% or more and less than 60% is rated “C,”)”.
